Test results as given in patent publication US20080234347A1, “METHOD FOR TREATING CB2 RECEPTOR MEDIATED PAIN” (priority 2007, published 2008).

Tests used:
[1] = target: T1, CB2 receptor (Rattus norvegicus, UniProt Q9QZN9); details: background literature statement; cited from earlier work
T1 sequence (Q9QZN9 1-360): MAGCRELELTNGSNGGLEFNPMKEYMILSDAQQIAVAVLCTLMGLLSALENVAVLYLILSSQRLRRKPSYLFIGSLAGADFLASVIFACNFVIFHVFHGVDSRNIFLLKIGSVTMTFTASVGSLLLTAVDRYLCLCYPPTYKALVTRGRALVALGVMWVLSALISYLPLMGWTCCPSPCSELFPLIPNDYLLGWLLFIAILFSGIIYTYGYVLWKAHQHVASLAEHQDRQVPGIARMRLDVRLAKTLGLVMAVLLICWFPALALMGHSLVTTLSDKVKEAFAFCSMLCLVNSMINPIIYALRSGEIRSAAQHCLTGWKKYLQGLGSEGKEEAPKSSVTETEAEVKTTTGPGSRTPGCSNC

[2] = test system: male Sprague-Dawley rats; assay: Carrageenan model of inflammatory pain, radiant heat paw withdrawal, compound given before carrageenan (Example 1); format: in vivo, rat; details: 1 h before 1% carrageenan, mean ± SEM, cutoff 20 sec
Description: Intraplantar injection of carrageenan (Cg) in a rodent produces pronounced hypersensitivity to both thermal and mechanical stimuli. The effects of carrageenan are maximal 2-4 hr after administration.
(§1) To assess the ability of test compounds to reverse thermal hyperalgesia, baseline response latencies on a radiant heat (RH) paw stimulator were obtained before an intraplantar injection of carrageenan-λ (200 μL) in male Sprague-Dawley rats (250-350 g in treatment groups of […] each). Only withdrawal responses that were quick hind paw movements (with or without licking of the hind paw) were recorded. Paw movements associated with locomotion or a shifting of weight were not considered a withdrawal response.
(§2) The weight of each animal was recorded on the day of the experiment. Each animal was placed on a warm (approx. body temperature, 30° C.) glass surface and allowed to acclimate to the test chamber for approximately 10-15 minutes. A radiant thermal stimulus (beam of light) was then focused on the sole of each hind paw in turn, and an initial (baseline) response time to thermal stimuli was recorded for each animal. The stimulus intensity (radiant heat at a setting of 5 Amps) that produced 10-15 sec baseline withdrawal latencies was used and a maximum cutoff of 20 sec was imposed. The light stimulus was automatically shut off by a photoelectric relay when the foot moved or when the cut-off time limit was reached.
One treatment group (8 animals each) was injected i.p. with vehicle (5% DMSO and 5% Tween-80 in sterile saline). The other treatment groups (8 animals each) were injected i.p. with 3, 10 or 30 mg/kg Compound 7.
One hour later, withdrawal latencies for the animals administered vehicle were recorded. After assessment, all animals were administered 1% carrageenan (200 μL in sterile saline) subcutaneously into the sub-plantar tissue of the left hind paw to stimulate an acute inflammatory reaction. Three hours later, the response time of the animals to the thermal stimulus was evaluated.

[3] = test system: male Sprague-Dawley rats; assay: Carrageenan model of inflammatory pain, radiant heat paw withdrawal, compound given after carrageenan (Example 2); format: in vivo, rat; details: read thirty minutes after compound, mean ± SEM
Description: as §1, §2
The experiment of Example 1 was repeated with the exception that animals were first administered 1% carrageenan (200 μL in sterile saline) subcutaneously into the sub-plantar tissue of the left hind paw to stimulate an acute inflammatory reaction.
Two and a half hours later, withdrawal latencies were assessed (‘post-Cg’). One treatment group (7 animals each) was then injected i.p. with vehicle (5% DMSO and 5% Tween-80 in sterile saline). The other treatment groups (8 animals each) were injected i.p. with 3, 10 or 30 mg/kg Compound 7. Thirty minutes after test compound administration withdrawal latencies were recorded.

[4] = test system: Rats (male Sprague Dawley); assay: Visceral hyperalgesia model, colorectal distension after zymosan colitis; format: in vivo, rat; details: ± SEM
Description: This protocol uses barostat-controlled, isobaric colorectal distensions (CRD) in rats to evaluate the potency and efficacy of test compounds in treating visceral hyperalgesia.
Rats (male Sprague Dawley (275-350 g; CD(SD); Charles River Labs) are housed 2 to 4 animals per cage in a temperature and humidity controlled room with a 12 hr/12 hr light/dark cycle, with ad libitum access to food and water.
One day after release from quarantine, the animals were acclimated to progressively longer (30 min and 4 hr later, 45 min) periods of simple restraint in plexiglas devices (G-3, rat ECU; Braintree Scientific; Braintree Mass.). The animals were returned to their home cages overnight. The next day they were acclimated in the restraint device for 60 min in the morning. 4 hrs later, the animals were lightly anesthetized with 70% CO2:30% O2. A highly compliant, 4 cm long polyethylene balloon, lubricated with K-Y Jelly was then inserted via the anus into the rectum and distal colon. The balloon was positioned such that the aboral end was 1 cm from the anus and was secured in place by taping the balloon catheter to the base of the tail. The catheter was connected to a computerized barostat that controlled the inflation of the balloon and the resulting colorectal distension. The balloon pressure, representing intracolonic pressure, was continuously recorded.
CRD in conscious animals elicits a reflex visceromotor response consisting of contraction of the anterior abdominal wall muscles (Ness T J and Gebhart G F, Colorectal distension as a noxious visceral stimulus: physiologic and pharmacologic characterization of pseudaffective reflexes in the rat, Brain Res., (1988), 450: 153-169). Contraction of these muscles increases intraabdominal pressure and subsequently increases intracolonic pressure. Changes in intracolonic pressure are transduced through the same balloon used to deliver the CRD. The manometric endpoint has recently been reported to mimic electromyographic responses recorded from anterior abdominal wall muscles in rats (Tammpere A, Brusberg M, Axenborg J, Hirsch I, Larsson H and Lindstrom E, Evaluation of pseudo-affective responses to noxious colorectal distension in rats by manometric recordings, Pain, (2005), 116: 220-226)
Stimulus-response data were obtained by delivering two series of 20 sec ramp (15, 30, 45, 60, 75 mmHg) distensions at four-minute intervals and recording the manometric response as follows: the intracolonic pressure signal is passed through a digital 1 Hz highpass filter, rectified and the integral of the initial 15 seconds of the CRD subjected to baseline subtraction (the 15 sec immediately preceding balloon distension); the responses at each distending pressure are averaged to obtain a control stimulus/response curve for each animal. The colorectal balloons were then removed and the animals were returned to their home cages.
The following morning, one treatment group (4 animals) was injected i.p. with 10 mg/kg Compound 7 (solubilized in 5% DMSO and 5% Tween-80 in sterile saline).
One hour later, an acute colitis was induced in all treatment groups by the intracolonic instillation of a 1.5 mL bolus of 2.5% (w/v) zymosan A (from Saccharomyces cerevisiae; Sigma Chemical Co., St. Louis) in 30% ethanol (under light 70% CO2:30% O2 anesthesia). Four hours later, the animals were lightly anesthetized and the colorectal balloons inserted as on the previous day for controlled distensions. The identical CRD stimuli was applied and manometric responses were recorded and analyzed as described for the control phase of the experiment.
The animals in one treatment group (4 animals) were then subcutaneously (s.c.) dosed with 1 mg/kg morphine. As a comparator for analgesic response, animals in another treatment group (9 animals) were dosed s.c. with 3 mg/kg morphine 4 hrs after colitis initiation and 30 min prior to CRD.

[5] = test system: Male CD-1 mice; assay: Hot-plate nociception test; format: in vivo, mouse; details: 30 min after dosing, 48° C. hot plate, cut-off 90 sec, ± SEM
From the text: The hot-plate test originally described by Eddy and Leimbach (J. Pharmacol. Exp. Ther. 107:385-393, 1953) with minor modifications (e.g., O'Callaghan and Holtzman, J. Pharmacol. Exp. Ther. 192: 497-505, 1975) was used to ascertain the analgesic potential of investigated compounds. The hot plate analgesia meter used for these studies was produced by Columbus Instruments International (Columbus, Ohio).
Male CD-1 mice (30-35 g) were weighed, placed in a plastic box with wood chips and allowed to acclimate before testing. An individual mouse was placed on a 48° C. heated surface and locomotion on the plate was constrained by a glass cylinder. The time interval between placement and a shaking, licking or tucking of either hind-paw (nociceptive response) was recorded as the Baseline measurement. Animals were removed from the heated plate immediately after responding or after a maximum of 40 sec to prevent tissue damage. Each mouse was tested only once.
One treatment group (9 animals each) was then injected i.p. with vehicle (5% DMSO and 5% Tween-80 in sterile saline). The other treatment groups (8 animals each) were injected i.p. with 10 or 30 mg/kg Compound I. Thirty minutes after test compound administration, each animal was assessed for a response with a maximum cut-off of 90 sec. […]

Structure (SMILES): CN1CCCCC1Cn1cc(C(=O)c2cc([N+](=O)[O-])ccc2I)c2ccccc21 (stereo not shown) [AM1241]
- antinociception to thermal stimuli [1]: produces antinociception to thermal stimuli

Structure (SMILES): C[C@H](NS(=O)(=O)/C=C/c1n[nH]c2c1CCCC/C2=C\c1ccc(Cl)cc1)c1ccccc1 [Compound 7, (2E,8E)-2-[8-(4-chloro-benzylidene)-1,4,5,6,7,8-hexahydro-cycloheptapyrazol-3-yl]-ethenesulfonic acid [(1S)-1-phenyl-ethyl]-amide]
- withdrawal latency to radiant thermal stimulus, 3 hrs post Cg administration ([2]; 3 mg/kg i.p.): 8.44 ± 1.88 s
- withdrawal latency to radiant thermal stimulus, 3 hrs post Cg administration ([2]; 10 mg/kg i.p.): 7.87 ± 1.01 s
- withdrawal latency to radiant thermal stimulus, 3 hrs post Cg administration ([2]; 30 mg/kg i.p.): 6.05 ± 0.83 s
- withdrawal latency to radiant thermal stimulus, 0.5 hrs post Cg ([3]; 3 mg/kg i.p. given 2.5 h after carrageenan): 5.30 ± 0.48 s
- withdrawal latency to radiant thermal stimulus, 0.5 hrs post Cg ([3]; 10 mg/kg i.p. given 2.5 h after carrageenan): 5.33 ± 0.48 s
- withdrawal latency to radiant thermal stimulus, 0.5 hrs post Cg ([3]; 30 mg/kg i.p. given 2.5 h after carrageenan): 4.53 ± 0.39 s
- manometric response, percent of initial (control) response ([4]; 15 mmHg distension, 10 mg/kg i.p. 1 h before zymosan colitis, n = 4): 245.7 ± 87.76%
- manometric response, percent of initial (control) response ([4]; 30 mmHg distension, 10 mg/kg i.p. 1 h before zymosan colitis, n = 4): 527.2 ± 196.8%
- manometric response, percent of initial (control) response ([4]; 45 mmHg distension, 10 mg/kg i.p. 1 h before zymosan colitis, n = 4): 301.3 ± 104.2%
- manometric response, percent of initial (control) response ([4]; 60 mmHg distension, 10 mg/kg i.p. 1 h before zymosan colitis, n = 4): 243.7 ± 66.53%
- manometric response, percent of initial (control) response ([4]; 75 mmHg distension, 10 mg/kg i.p. 1 h before zymosan colitis, n = 4): 230.9 ± 51.95%

Structure (SMILES): O=C(N[C@H](CO)c1ccccc1)c1n[nH]c2c1CCCCC2Cc1cccc(Cl)c1 (stereo partly drawn) [Compound 1, 8-(3-chloro-benzyl)-1,4,5,6,7,8-hexahydro-cycloheptapyrazole-3-carboxylic acid [(1S)-2-hydroxy-1-phenyl-ethyl]-amide]
- % MPE (percent maximal effect) ([5]; 10 mg/kg i.p.): 20.58 ± 9.27 % MPE
- % MPE (percent maximal effect) ([5]; 30 mg/kg i.p.): 4.25 ± 10.65 % MPE

Structure (SMILES): CN1CC[C@]23c4c5ccc(O)c4O[C@H]2[C@@H](O)C=C[C@H]3[C@H]1C5 [Morphine, morphine, reference compound]
- manometric response, percent of initial (control) response ([4]; 15 mmHg distension, morphine 3 mg/kg s.c. 4 hrs after colitis initiation, 30 min prior to CRD, n = 9): 96.34 ± 12.53%
- manometric response, percent of initial (control) response ([4]; 30 mmHg distension, morphine 3 mg/kg s.c. 4 hrs after colitis initiation, 30 min prior to CRD, n = 9): 69.96 ± 11.21%
- manometric response, percent of initial (control) response ([4]; 45 mmHg distension, morphine 3 mg/kg s.c. 4 hrs after colitis initiation, 30 min prior to CRD, n = 9): 61.69 ± 8.72%
- manometric response, percent of initial (control) response ([4]; 60 mmHg distension, morphine 3 mg/kg s.c. 4 hrs after colitis initiation, 30 min prior to CRD, n = 9): 56.33 ± 8.23%
- manometric response, percent of initial (control) response ([4]; 75 mmHg distension, morphine 3 mg/kg s.c. 4 hrs after colitis initiation, 30 min prior to CRD, n = 9): 63.18 ± 9.19%
